# In patent US20070249670A1, “Glycogen Phosphorylase Inhibitor Compounds and Pharmaceutical Compositions Thereof” (SMITHKLINE BEECHAM CORPORATION, priority 2004, published 2007):
# pIC50: −log10 of the molar value.
# Target: T1, human liver glycogen phosphorylase a (HLGPa) (Homo sapiens, UniProt P06737)
# T1 construct: creating a full-length cDNA fused at the 5′ end to codons for methionine-glycine-alanine-histidine; 6xHis tag (leader Met-Gly-Ala-His6-Gly-Gly) (N); made in house; host or cells: E. coli (bacterial expression plasmid pTXK1007LTev)
# T1 sequence (P06737 2-847 limits assumed): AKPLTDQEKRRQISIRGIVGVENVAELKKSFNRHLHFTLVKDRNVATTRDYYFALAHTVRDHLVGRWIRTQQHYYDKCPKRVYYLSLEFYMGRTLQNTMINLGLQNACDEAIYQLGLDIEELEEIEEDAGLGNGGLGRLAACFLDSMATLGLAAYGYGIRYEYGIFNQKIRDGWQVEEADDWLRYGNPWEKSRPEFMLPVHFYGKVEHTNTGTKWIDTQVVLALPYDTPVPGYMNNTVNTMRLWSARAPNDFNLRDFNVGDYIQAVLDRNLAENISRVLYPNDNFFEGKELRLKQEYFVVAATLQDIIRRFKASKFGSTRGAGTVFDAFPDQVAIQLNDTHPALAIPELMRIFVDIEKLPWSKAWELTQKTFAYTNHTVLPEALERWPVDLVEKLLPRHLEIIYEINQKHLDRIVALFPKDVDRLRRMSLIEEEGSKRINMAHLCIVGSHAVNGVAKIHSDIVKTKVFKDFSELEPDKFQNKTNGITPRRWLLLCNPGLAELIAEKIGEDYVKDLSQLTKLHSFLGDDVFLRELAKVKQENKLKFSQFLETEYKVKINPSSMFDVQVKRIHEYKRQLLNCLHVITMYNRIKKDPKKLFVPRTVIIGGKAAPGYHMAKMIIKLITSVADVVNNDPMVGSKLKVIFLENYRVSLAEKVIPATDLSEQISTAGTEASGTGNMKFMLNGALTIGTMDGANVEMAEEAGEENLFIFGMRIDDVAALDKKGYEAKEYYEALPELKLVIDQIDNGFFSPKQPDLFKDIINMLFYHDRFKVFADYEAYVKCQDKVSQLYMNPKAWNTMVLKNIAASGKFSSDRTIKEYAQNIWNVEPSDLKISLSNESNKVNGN
# Assay: Human liver glycogen phosphorylase a enzymatic activity assay (coupled, fluorescent resorufin readout, with and without 10 mM glucose)
# Type: biochemical
# Conditions: human liver glycogen phosphorylase a enzymatic activity assay
row,pIC50,Structure (SMILES)
1,7.70,"CCCCc1cc(C)c(NC(=O)Nc2cc(F)ccc2C(=O)N[C@H](C(=O)O)C2CCCCC2)c(C)c1 [Example 480, (2S)-({[2-({[(4-butyl-2,6-dimethylphenyl)amino]carbonyl}amino)-4-fluorophenyl]carbonyl}amino)(cyclohexyl)ethanoic acid]"
2,9.40,"CCCc1cc(C)c(NC(=O)Nc2cc(-c3ccc(F)c(F)c3)ccc2C(=O)N[C@H](C(=O)O)[C@@H](C)OC(C)(C)C)c(C)c1 [Example 481, O-(1,1-dimethylethyl)-N-{[3-({[(2,6-dimethyl-4-propylphenyl)amino]carbonyl}amino)-3′,4′-difluoro-4-biphenylyl]carbonyl}-L-threonine]"
3,8.30,"Cc1cc(CC2CC2)cc(C)c1NC(=O)Nc1cc(F)ccc1C(=O)N[C@H](C(=O)O)C1CCCCC1 [Example 482, (2S)-cyclohexyl[({2-[({[4-(cyclopropylmethyl)-2,6-dimethylphenyl]amino}carbonyl)amino]-4-fluorophenyl}carbonyl)amino]ethanoic acid]"
4,9.00,"Cc1cc(CC2CC2)cc(C)c1NC(=O)Nc1cc(-c2ccc(F)c(F)c2)ccc1C(=O)N[C@H](C(=O)O)[C@@H](C)OC(C)(C)C [Example 483, N-({3-[({[4-(cyclopropylmethyl)-2,6-dimethylphenyl]amino}carbonyl)amino]-3′,4′-difluoro-4-biphenylyl}carbonyl)-O-(1,1-dimethylethyl)-L-threonine]"
5,5.30,"COc1ccc(-c2nc(NC(=O)Nc3c(Cl)cc(Cl)cc3Cl)c(C(=O)N[C@H](C(=O)O)C3CCCCC3)s2)cc1 [Example 484, (2S)-Cyclohexyl({[2-[4-(methyloxy)phenyl]-4-({[(2,4,6-trichlorophenyl)amino]carbonyl}amino)-1,3-thiazol-5-yl]carbonyl}amino)ethanoic acid]"
6,5.75,COc1ccc(-c2nc(C(=O)N[C@H](C(=O)O)C3CCCCC3)c(NC(=O)Nc3c(C)cccc3C(C)C)s2)cc1 [Example 486]
7,6.13,"COc1ccc(-c2nc(C(=O)N[C@H](C(=O)O)C3CCCCC3)c(NC(=O)Nc3c(Cl)cccc3Cl)s2)cc1 [Example 487, (2S)-Cyclohexyl[({5-({[(2,6-dichlorophenyl)amino]carbonyl}amino)-2-[4-(methyloxy)phenyl]-1,3-thiazol-4-yl}carbonyl)amino]ethanoic acid]"
8,5.08,"COc1ccc(-c2nc(C(=O)O)c(NC(=O)Nc3c(C)cc(C)cc3C)s2)cc1 [Example 488, 2-[4-(Methyloxy)phenyl]-5-({[(2,4,6-trimethylphenyl)amino]carbonyl}amino)-1,3-thiazole-4-carboxylic acid]"
9,7.47,"COc1ccc(-c2nc(C(=O)NC3(C(=O)O)CCCCC3)c(NC(=O)Nc3c(C)cc(C)cc3C)s2)cc1 [Example 489, 1-({[2-[4-(Methyloxy)phenyl]-5-({[(2,4,6-trimethylphenyl)amino]carbonyl}amino)-1,3-thiazol-4-yl]carbonyl}amino)cyclohexanecarboxylic acid]"
10,6.77,"O=C(Nc1sc(-c2ccc(Cl)cc2)nc1C(=O)N[C@H](C(=O)O)C1CCCCC1)Nc1c(Cl)cc(Cl)cc1Cl [Example 490, (2S)-({[2-(4-Chlorophenyl)-5-({[(2,4,6-trichlorophenyl)amino]carbonyl}amino)-1,3-thiazol-4-yl]carbonyl}amino)(cyclohexyl)ethanoic acid]"
11,5.68,"Cc1cccc(C)c1NC(=O)Nc1cc2ccccc2cc1C(=O)N(C)CC(=O)O [Example 491, N-{[3-({[(2,6-dimethylphenyl)amino]carbonyl}amino)-2-naphthalenyl]carbonyl}-N-methylglycine]"
12,5.12,"Cc1cccc(C)c1NC(=O)Nc1cc2ccccc2cc1C(=O)NCCCC(=O)O [Example 492, 4-({[3-({[(2,6-dimethylphenyl)amino]carbonyl}amino)-2-naphthalenyl]carbonyl}amino)butanoic acid]"
13,5.01,"COC(=O)CCNC(=O)c1cc2ccccc2cc1NC(=O)Nc1c(C)cc(C)cc1C [Example 493, methyl N-{[3-({[(2,4,6-trimethylphenyl)amino]carbonyl}amino)-2-naphthalenyl]carbonyl}-beta-alaninate]"
